Publication PMC8162438, “Cancer cell-selective modulation of mitochondrial respiration and metabolism by potent organogold(III) dithiocarbamates” (Chemical Science, 2020)

System: MDA-MB-231
Experiment: Apoptosis analysis, Annexin V-FITC/PI FACS
Assay type: cell-based
Details: MDA-MB-231, 10 μM, 4 h, extrapolated from Fig. 10B
Excerpt: Apoptosis is a common cell death pathway for chemotherapeutics which can be characterized by distinct morphological features and biochemical mechanisms.[88,89] Apoptosis occurs normally in healthy cells to maintain a healthy population of cells during aging or development of tissues. Some transition metal-based drugs can trigger apoptosis due to […] of p53 dependant pathway (a tumour suppressor gene).[90,91] Populations of apoptotic cells can be determined by containing cells with Annexin V and PI.[92,93] Cells undergoing apoptosis contain ample amount of phosphatidylserine (PS) which can be bound by Annexin V. The Annexin is then labelled with FITC, a green fluorogenic dye which can be visualized by fluorescence activated cell sorting (FACS). PI is used to stain damaged DNA to distinguish apoptotic from necrotic cells. […]
media. […] The plates were read using a Genios plate reader (λ = 570 nm). […]
Cell Viability of 1a-1e and 2a-2e (Suspended Cell Lines). The cell viability of 2a was determined in K562. […]
10% CO 2. […] To each designated well was then added 20 µL of CellTiter-Glo solution and orbitally shaken for 5 minutes and the luminescence (1000 ms integration and 150 ms gain) acquired on a Genios plate reader. […]

How did the “Increase in apoptotic cells in comparison to control” value turn out when `C[N+](C)=C1[S][Au-2]2([S]1)[c]1ccccc1Cc1cccc[n+]12.F[P-](F)(F)(F)(F)F` (stereo not shown) [2a] was run?
Its value is 36%.
